Like-named read-outs stand apart in the source and are kept apart here.
Key:
[1] = in vitro; settings: both, human, microsomes, pH 7.4, Microsomal stability assays: Clearance
[2] = Microsomal stability assay, human liver microsomes; settings: for half-life at 0.08 µM: both, human, pooled liver microsomes, pH 7.4, Microsomal stability assays: Half-life
[3] = biological target: T1, VMAT2 (Rattus norvegicus (Rat), UniProt Q01827); assay: [3H]Dopamine ([3H]DA) uptake assay, vesicular preparation; format: biochemical
[4] = biological target: hERG channel (Homo sapiens (Human), UniProt Q12809); assay: [3H]Dofetilide binding assay, HEK-293 cell membrane preparation; settings: [3H]dofetilide, HEK-293 cell membranes; read-out: hERG Binding: Mean Ki ± Standard Deviation
Description: (§1) [^3H]Dofetilide binding assays were conducted using commercially available HEK-293 cell membranes which stably express the hERG channel. Membranes were suspended in assay buffer (50 mM Tris, 10 mM KCl, 1 mM MgCl2, pH 7.4) prior to the experiment. […] Aliquots of the HEK-293 cell membrane suspension which contained 5 μg membrane protein were added to tubes containing assay buffer, 5 nM [^3H]dofetilide and a range of concentrations of analog (10 nM-100 μM). Nonspecific binding was determined in the presence of amitriptyline (1 mM). Samples were incubated for 1 hr. at 24° C., followed by rapid filtration. […] The affinity for the [^3H]dofetilide binding site on the hERG channel expressed in the HEK-293 cellular membrane was determined from the analog concentration response curves.

[5] = in vitro; settings: female, Sprague-Dawley, rat, microsomes, pH 7.4, Microsomal stability assays: Clearance
Description: (§3) Each plate holds triplicate samples of two controls (0.4 mM) and up to 14 compounds (0.08 mM) in rat and human liver microsomes. Aliquots of each well of the plate (175 μl of each well) were transferred from the master plate into 5 assay plates. For 0-hr time point, pre-cooled (4° C.) internal standard (437.5 μL, 2 μM caffeine in methanol) was added to the first plate before the reaction starts. NADPH regenerating system solution A (6.05 ml, Fisher Scientific, #NC9255727) was combined with NADPH regenerating system solution B (1.21 ml, Fisher Scientific, #NC9016235) in potassium phosphate buffer (15.8 ml, 0.1 M, pH 7.4, 37° C.). The resulting NADPH solution (43.8 μl) was added to each well of all the 96-well assay plates and mixed with pipette briefly making the final protein and compound concentrations respectively: 0.5 mg/ml, 0.08 μM (0.4 μM for controls). Plates were sealed, and all plates except the 0-hr plate were incubated at 37° C., shaken at a speed of 60 rpm. A single assay plate was tested at each time point: 0.5 hr, 1 hr, 2 hr, and 4 hr. At each time point, 437.5 μL of pre-cooled internal standard was added each well of the plate to quench the reaction. […] 120 μl supernatant was transferred to a 96-well plate, centrifuged again and analyzed by UPLC-MS (Waters Inc., Milford, MA). The compounds and internal standard were detected by selected ion recording (SIR).
(§4) The amount of material was measured as a ratio of peak area to the internal standard and graphed. Using the slope from the initial linear portion of this curve, the degradation rate constant is calculated using equation [1].

[6] = Microsomal stability assay, rat liver microsomes; settings: female, Sprague-Dawley, rat, liver microsomes, pH 7.4, Microsomal stability assays: Half-life
Description: as §3, §4

[7] = biological target: hERG channel (selectivity at VMAT2 over hERG) (Homo sapiens (Human), UniProt Q12809); assay: [3H]Dofetilide binding assay, HEK-293 cell membrane preparation; settings: human, pH 7.4
Description: as §1

[8] = biological target: dopamine transporter (DAT) (Rattus norvegicus (Rat), UniProt P23977); assay: [3H]DA uptake assay, synaptosomal preparation; format: biochemical
Description: (§2) [^3H]DA and [^3H]5-HT uptake into striatal synaptosomes was determined to evaluate compound inhibition of the dopamine transporter (DAT) and the serotonin transporter (SERT), respectively.

[9] = biological target: serotonin transporter (SERT) (Rattus norvegicus (Rat), UniProt P31652); assay: [3H]5-HT uptake assay, synaptosomal preparation; format: biochemical
Description: as §2

[10] = tested on: rats; assay: METH-stimulated locomotor activity in rats; format: in vivo, rat; settings: 3 mg/kg, s.c.
[11] = biological target: T1, VMAT2; settings: rat brain synaptic vesicles; read-out: [3H]DTBZ binding (Ki) VMAT2
[12] = tested on: rat striatal slices; settings: cited from earlier work
[13] = in vivo; cited from earlier work
[14] = biological target: T1, VMAT2; settings: rat brain vesicles; read-out: inhibition of [3H]DA uptake into rat brain vesicles via VMAT2 (Ki); cited from earlier work
[15] = [3H]DA uptake, rat, read-out: VMAT2 (rat) Inhibition: Mean Ki ± Standard Deviation
[16] = rat striatal synaptic vesicles, read-out: [3H]DA uptake (Ki) VMAT2

hERG channel, sequence (Q12809 whole entry): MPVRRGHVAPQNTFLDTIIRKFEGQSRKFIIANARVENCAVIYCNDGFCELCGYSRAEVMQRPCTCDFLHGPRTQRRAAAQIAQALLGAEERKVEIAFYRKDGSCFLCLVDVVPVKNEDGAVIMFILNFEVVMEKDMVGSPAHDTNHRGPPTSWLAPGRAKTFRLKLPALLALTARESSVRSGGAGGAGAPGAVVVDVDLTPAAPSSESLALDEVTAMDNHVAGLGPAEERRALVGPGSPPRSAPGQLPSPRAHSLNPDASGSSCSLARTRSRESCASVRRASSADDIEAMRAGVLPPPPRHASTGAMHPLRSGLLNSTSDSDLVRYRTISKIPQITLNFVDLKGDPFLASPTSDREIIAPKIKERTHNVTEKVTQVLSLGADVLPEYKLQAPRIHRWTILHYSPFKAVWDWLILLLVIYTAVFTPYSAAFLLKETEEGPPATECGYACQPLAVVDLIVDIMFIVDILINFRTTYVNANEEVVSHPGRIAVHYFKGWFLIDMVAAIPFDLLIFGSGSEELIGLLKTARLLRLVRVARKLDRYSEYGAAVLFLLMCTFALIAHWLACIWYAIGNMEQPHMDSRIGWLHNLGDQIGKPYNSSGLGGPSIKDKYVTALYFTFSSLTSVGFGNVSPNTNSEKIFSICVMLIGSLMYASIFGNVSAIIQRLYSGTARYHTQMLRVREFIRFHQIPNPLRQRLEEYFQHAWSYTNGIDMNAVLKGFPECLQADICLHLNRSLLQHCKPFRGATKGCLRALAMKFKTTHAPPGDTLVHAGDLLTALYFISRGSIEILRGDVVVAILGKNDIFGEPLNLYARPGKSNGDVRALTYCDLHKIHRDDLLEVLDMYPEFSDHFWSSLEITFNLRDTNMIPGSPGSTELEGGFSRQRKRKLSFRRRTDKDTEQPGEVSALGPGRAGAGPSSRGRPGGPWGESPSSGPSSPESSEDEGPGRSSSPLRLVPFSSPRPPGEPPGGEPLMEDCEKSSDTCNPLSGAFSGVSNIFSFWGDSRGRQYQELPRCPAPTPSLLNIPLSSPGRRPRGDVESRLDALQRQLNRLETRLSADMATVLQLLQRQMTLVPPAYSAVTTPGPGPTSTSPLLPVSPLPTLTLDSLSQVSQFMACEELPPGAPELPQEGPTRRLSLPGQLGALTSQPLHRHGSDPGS
hERG channel (selectivity at VMAT2 over hERG), sequence (Q12809 whole entry): as above

Fc1ccc(CCCNC(Cc2ccc(F)cc2)C(F)F)cc1 (centres unmarked) [Compound 82]
CLint scaled at 0.08 µM [1]: 26.3 mL/min/kg | half-life at 0.08 µM [2]: 48 min

FCC(Cc1ccc(-c2cncnc2)cc1)NCCCc1ccc(F)cc1 (centres unmarked) [Compound 68]
Ki [3, 15]: 5.53 ± 0.567 nM | Ki [4]: 633 ± 46.3 nM | CLint scaled at 0.08 µM [1]: > 400 mL/min/kg | half-life at 0.08 µM [2]: < 6 min

OCC(Cc1ccc(F)cc1)NCCCn1cccn1 (centres unmarked) [Compound 131]
CLint scaled at 0.08 µM [5]: 139 mL/min/kg | half-life at 0.08 µM [6]: 18 min

OCC(Cc1ccc(F)cc1)NCCCc1ccncc1 (centres unmarked) [Compound 129]
CLint scaled at 0.08 µM [1]: < 5.2 mL/min/kg | half-life at 0.08 µM [2]: > 240 min

O=CNc1ccc(CC(CF)NCCCc2ccc(F)cc2)cc1 (centres unmarked) [Compound 72]
Ki [3, 15]: 16.4 ± 2.89 nM | Ki [4]: 516 ± 63.6 nM | CLint scaled at 0.08 µM [1]: 26.5 mL/min/kg | half-life at 0.08 µM [2]: 48 min

FCC(Cc1ccc(F)cc1)NCCCc1ccnc2ccccc12 (centres unmarked) [Compound 148]
Ki [3, 15]: 70.3 ± 13 nM | Ki [4]: 4700 ± 373 nM | CLint scaled at 0.08 µM [5]: > 400 mL/min/kg | half-life at 0.08 µM [6]: < 6 min

FCC(Cc1ccc(-c2cccnc2)cc1)NCCCc1ccc(F)cc1 (centres unmarked) [Compound 83]
Ki [3, 15]: 27.7 ± 13.9 nM | Ki [4]: 6750 ± 3620 nM | CLint scaled at 0.08 µM [5]: 113 mL/min/kg | half-life at 0.08 µM [6]: 24 min

OCC(Cc1ccc(F)cc1)NCCCc1ccc(Br)cc1 (centres unmarked) [Compound 154]
Ki [3, 15]: 69.1 ± 13.6 nM | CLint scaled at 0.08 µM [1]: < 5.2 mL/min/kg | half-life at 0.08 µM [2]: > 240 min

FCC(Cc1ccc(F)cc1)NCCCc1ccnc2ccccc12 (centres unmarked) [Compound 149]
CLint scaled at 0.08 µM [1]: 162 mL/min/kg | Microsomal stability assays: Half-life [2]: 6 min

COc1ccc(CCCN[C@H](C)Cc2ccccc2)cc1.Cl [Compound 9]
Ki ([3]; Ki value at VMAT2, text value): 8.71 ± 3.65 nM | Ki ([3]; [3H]DA uptake (Ki) VMAT2, rat striatal synaptic vesicles): 8.7 ± 6.5 nM | selectivity ratio at 1 hr [7]: > 30 | selectivity at VMAT2 over DAT [8]: > 30 fold | selectivity at VMAT2 over SERT [9]: > 30 fold | METH-stimulated locomotor activity [10]: significant reduction

Fc1ccc(CCCNC(Cc2ccc(F)cc2)C(F)F)cc1 (centres unmarked) [Compound 81]
Ki [3, 15]: 386 ± 194 nM | CLint scaled at 0.08 µM [5]: 83.2 mL/min/kg | half-life at 0.08 µM [6]: 36 min

CC(Cc1ccccc1)NCCCc1ccccc1 (centres unmarked) [Compound 4]
Ki [11]: 1130 ± 310 nM | Ki [3, 16]: 7 ± 2 nM

CC(Cc1ccc(NC=O)cc1)N(C=O)CCCc1ccccc1 (centres unmarked) [Compound 76]
CLint scaled at 0.08 µM [5]: 56 mL/min/kg | half-life at 0.08 µM [6]: 48 min

CC(Cc1ccccc1)NCCc1ccccc1 (centres unmarked) [Compound 1]
Ki [11]: 7700 ± 1250 nM | Ki [3, 16]: 63 ± 5 nM

CC(Cc1ccc(F)cc1)NCCCc1ccccc1 (centres unmarked) [Compound 39]
Ki [11]: 1300 ± 300 nM | Ki [3, 16]: 10 ± 0.2 nM

CC(Cc1ccccc1)N(C)CCCc1ccccc1 (centres unmarked) [Compound 7]
Ki [11]: 1560 ± 470 nM | Ki [3, 16]: 96 ± 10 nM

COc1ccc(CCCNC(C)CCc2ccc(OC)cc2)cc1 (centres unmarked) [Compound 53]
Ki [11]: 1500 ± 700 nM | Ki [3, 16]: 24 ± 6 nM

CC(CCc1ccccc1)NCCc1ccccc1 (centres unmarked) [Compound 48]
Ki [11]: 1600 ± 330 nM | Ki [3, 16]: 50 ± 4 nM

CC(Cc1ccc(Br)cc1)NCCCCc1ccccc1 (centres unmarked) [Compound 14]
Ki [11]: 81 ± 16 nM | Ki [3, 16]: 3 ± 0.3 nM

CN1[C@@H](CCc2ccccc2)CCC[C@H]1CCc1ccccc1 [Lobelane]
METH-evoked DA overflow [12]: decreases | METH self-administration [13]: decreases

COc1ccc(CCNC(C)CCc2ccc(OC)cc2)cc1 (centres unmarked) [Compound 33]
Ki [11]: 1500 ± 200 nM | Ki [3, 16]: 60 ± 7 nM

Nc1ccc(CC(CF)NCCCc2ccc(F)cc2)cc1 (centres unmarked) [Compound 79, [N-3-(4-fluorophenyl)-propan-1-yl]-3-(4-aminophenyl)-1-fluoro-2-propylamine]
Ki [3, 15]: 19.8 ± 9.29 nM | Ki [4]: 3440 ± 983 nM | CLint scaled at 0.08 µM [5]: 21.1 mL/min/kg | half-life at 0.08 µM [6]: 132 min

CC(CCc1ccccc1)N(C)CCc1ccccc1 (centres unmarked) [Compound 49]
Ki [11]: 29800 ± 11200 nM | Ki [3, 16]: 84 ± 4 nM

c1ccc(CC[C@H]2CCC[C@@H](CCc3ccccc3)N2)cc1 [Nor-Lobelane]
Ki [14]: 44 nM

COc1ccc(CCCNC(C)CCc2ccccc2)cc1 (centres unmarked) [Compound 52]
Ki [11]: 3200 ± 100 nM | Ki [3, 16]: 26 ± 2 nM
